The values below come from ChEMBL document CHEMBL5465560, “Selectivity Literature for EUbOPEN Chemogenomic Library” (2024).

Assay [1] has as its target AP2-associated protein kinase 1 (Homo sapiens, UniProt Q2M2I8). Put plainly: Selectivity interaction (LanthaScreen Eu Kinase Binding Assay) EUB0001632a AAK1. The following applies: at 10 µM.
Assay [2] has as its target T1, Protein arginine N-methyltransferase 9 (Homo sapiens, UniProt Q6P2P2).
T1 sequence (Q6P2P2 whole entry): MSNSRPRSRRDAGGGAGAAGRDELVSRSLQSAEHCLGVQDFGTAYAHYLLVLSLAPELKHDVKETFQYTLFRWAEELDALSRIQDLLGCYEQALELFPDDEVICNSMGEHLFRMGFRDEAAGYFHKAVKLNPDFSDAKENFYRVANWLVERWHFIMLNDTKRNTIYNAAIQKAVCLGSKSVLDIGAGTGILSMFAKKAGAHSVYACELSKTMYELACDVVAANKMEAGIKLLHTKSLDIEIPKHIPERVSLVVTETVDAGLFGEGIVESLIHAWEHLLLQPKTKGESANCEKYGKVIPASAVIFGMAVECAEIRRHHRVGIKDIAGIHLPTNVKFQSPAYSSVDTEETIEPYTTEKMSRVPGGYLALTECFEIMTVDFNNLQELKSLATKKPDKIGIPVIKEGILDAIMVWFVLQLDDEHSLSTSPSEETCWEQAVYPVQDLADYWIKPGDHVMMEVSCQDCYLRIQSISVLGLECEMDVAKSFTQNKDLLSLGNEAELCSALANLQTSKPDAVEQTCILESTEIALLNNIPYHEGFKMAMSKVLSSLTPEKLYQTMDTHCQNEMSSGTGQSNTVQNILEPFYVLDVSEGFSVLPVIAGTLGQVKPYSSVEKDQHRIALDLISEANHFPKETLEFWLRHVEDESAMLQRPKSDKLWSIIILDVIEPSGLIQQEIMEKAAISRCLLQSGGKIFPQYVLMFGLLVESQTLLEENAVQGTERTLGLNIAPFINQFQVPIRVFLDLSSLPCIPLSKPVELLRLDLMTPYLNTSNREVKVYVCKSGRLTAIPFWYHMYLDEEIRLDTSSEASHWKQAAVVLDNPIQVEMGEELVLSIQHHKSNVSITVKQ
In words: Selectivity interaction (Scintillation proximity assays) EUB0000255b PRMT9. A general note: In a scintillation proximity assay essentially only radioactivity close to the scintillant gives light.

For assay [3], the target named is Receptor-interacting serine/threonine-protein kinase 3 (Homo sapiens) (UniProt Q9Y572). In words: Selectivity interaction (ActivX KiNativ screen (ex vivo kinase selectivity in human PBMCs)) EUB0001619a RIPK3. The class given is cell-based. The settings on record: PBMC, at 1 µM.
Receptor-interacting serine/threonine-protein kinase 3 (Homo sapiens), sequence (Q9Y572 whole entry, looked up): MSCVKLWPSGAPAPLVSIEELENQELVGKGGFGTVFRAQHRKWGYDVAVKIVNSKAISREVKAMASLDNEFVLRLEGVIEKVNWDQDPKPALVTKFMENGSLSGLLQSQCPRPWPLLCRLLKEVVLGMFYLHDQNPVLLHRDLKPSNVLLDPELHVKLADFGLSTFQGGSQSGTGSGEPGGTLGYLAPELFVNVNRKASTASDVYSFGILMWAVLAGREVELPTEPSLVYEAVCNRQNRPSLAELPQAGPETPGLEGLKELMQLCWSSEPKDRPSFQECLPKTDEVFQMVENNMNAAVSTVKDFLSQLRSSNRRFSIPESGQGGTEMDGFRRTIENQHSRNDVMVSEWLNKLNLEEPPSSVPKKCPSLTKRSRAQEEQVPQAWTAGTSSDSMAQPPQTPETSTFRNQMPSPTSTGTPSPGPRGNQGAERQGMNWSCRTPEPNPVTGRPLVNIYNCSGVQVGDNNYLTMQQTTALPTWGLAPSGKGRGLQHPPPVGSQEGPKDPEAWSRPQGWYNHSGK
Assay [4] deals with T2, Inhibitor of nuclear factor kappa-B kinase subunit epsilon (Homo sapiens) (UniProt Q14164).
T2 sequence (whole entry): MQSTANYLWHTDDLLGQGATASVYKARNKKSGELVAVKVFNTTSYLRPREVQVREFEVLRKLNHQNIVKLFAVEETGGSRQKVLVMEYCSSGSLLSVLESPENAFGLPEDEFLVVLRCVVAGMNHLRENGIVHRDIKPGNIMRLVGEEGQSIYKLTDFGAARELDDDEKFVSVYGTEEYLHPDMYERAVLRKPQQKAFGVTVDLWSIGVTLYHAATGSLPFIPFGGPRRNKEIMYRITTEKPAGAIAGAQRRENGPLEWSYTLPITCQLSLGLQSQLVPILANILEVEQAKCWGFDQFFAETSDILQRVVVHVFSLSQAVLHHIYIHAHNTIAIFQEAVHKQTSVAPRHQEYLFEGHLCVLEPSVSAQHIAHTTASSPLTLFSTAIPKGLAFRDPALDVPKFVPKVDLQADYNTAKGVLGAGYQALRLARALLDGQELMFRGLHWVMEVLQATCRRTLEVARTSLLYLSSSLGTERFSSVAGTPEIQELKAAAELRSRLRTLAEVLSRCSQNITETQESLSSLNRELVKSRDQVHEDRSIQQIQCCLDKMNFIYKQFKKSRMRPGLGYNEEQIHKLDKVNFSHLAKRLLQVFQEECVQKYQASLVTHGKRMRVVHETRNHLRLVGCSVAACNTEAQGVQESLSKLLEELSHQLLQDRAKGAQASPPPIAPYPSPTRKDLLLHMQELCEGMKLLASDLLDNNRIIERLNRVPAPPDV
Put plainly: Selectivity interaction (KinomeScan (DiscoverX)) EUB0000607a IKBKE. The following applies: at 10 µM.

For assay [5], the target named is Serine/threonine-protein kinase Nek7 (Homo sapiens) (UniProt Q8TDX7). In words: Selectivity interaction (SelectScreen profiling (Invitrogen)) EUB0000607a NEK7. The settings on record: at 2 µM.
Serine/threonine-protein kinase Nek7 (Homo sapiens), sequence (Q8TDX7 whole entry, looked up): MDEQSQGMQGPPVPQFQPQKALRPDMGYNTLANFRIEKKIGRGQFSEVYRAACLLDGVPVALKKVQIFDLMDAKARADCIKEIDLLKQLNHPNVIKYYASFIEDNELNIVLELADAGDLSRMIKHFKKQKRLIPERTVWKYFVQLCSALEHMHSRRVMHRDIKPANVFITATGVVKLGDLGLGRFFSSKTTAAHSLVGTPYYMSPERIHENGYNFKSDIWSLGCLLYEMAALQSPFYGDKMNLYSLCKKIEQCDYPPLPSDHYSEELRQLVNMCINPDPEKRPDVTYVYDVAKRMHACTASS
For assay [6], the target named is T3, Dual specificity mitogen-activated protein kinase kinase 3 (Homo sapiens) (UniProt P46734).
T3 sequence (whole entry): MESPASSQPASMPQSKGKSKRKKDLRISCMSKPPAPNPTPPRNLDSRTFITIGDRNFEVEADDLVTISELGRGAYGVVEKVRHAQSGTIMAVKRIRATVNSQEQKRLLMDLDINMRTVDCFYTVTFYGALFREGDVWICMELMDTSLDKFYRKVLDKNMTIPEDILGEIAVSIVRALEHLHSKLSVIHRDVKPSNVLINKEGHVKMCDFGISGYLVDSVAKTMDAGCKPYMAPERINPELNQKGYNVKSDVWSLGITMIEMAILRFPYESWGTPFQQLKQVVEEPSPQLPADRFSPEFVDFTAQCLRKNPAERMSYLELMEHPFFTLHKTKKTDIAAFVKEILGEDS
In words: Selectivity interaction (ActivX KiNativ screen (kinase selectivity in THP-1 cell lysates)) EUB0000639a MAP2K3. The following applies: lysate, at 0.2 µM. It counts as subcellular.

The target in assay [7] is RAC-gamma serine/threonine-protein kinase (Homo sapiens, UniProt Q9Y243). In words: Selectivity interaction (Kinase panel (Invitrogen)) EUB0000639a AKT3. The settings on record: at 200 nM.
RAC-gamma serine/threonine-protein kinase, sequence (Q9Y243 whole entry, canonical isoform): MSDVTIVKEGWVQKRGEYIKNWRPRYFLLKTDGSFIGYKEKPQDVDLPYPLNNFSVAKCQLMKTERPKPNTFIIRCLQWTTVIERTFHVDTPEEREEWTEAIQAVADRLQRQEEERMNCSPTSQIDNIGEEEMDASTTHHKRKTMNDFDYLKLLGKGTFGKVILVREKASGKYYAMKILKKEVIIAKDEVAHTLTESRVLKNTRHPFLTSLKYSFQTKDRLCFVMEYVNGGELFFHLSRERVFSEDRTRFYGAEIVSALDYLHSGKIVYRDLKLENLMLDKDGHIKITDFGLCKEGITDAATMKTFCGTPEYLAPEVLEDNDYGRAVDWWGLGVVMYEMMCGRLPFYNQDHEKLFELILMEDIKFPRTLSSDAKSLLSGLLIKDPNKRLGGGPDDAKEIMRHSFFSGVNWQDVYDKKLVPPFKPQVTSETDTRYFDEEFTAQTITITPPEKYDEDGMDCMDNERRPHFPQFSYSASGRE
Assay [8] deals with Casein kinase I isoform gamma-2 (Homo sapiens) (UniProt P78368). In words: Selectivity interaction (KinomeScan (DiscoverX)) EUB0000045b CSNK1G2.
Casein kinase I isoform gamma-2 (Homo sapiens), sequence (P78368 whole entry, looked up, canonical isoform): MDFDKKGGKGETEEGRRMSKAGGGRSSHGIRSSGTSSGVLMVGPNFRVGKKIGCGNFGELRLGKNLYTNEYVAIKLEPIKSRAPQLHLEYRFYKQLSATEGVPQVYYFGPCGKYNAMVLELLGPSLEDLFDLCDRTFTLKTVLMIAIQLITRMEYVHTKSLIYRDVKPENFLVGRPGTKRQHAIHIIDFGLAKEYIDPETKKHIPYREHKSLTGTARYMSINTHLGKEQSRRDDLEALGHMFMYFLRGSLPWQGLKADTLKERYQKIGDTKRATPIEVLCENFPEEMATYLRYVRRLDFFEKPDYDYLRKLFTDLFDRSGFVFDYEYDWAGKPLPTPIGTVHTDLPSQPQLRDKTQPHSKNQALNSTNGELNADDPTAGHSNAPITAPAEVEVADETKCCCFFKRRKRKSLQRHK
Assay [9] concerns the target Casein kinase I isoform alpha (Homo sapiens, UniProt P48729). In words: Selectivity interaction (Enzymatic assay) EUB0001199aCl CSNK1A1.
Assay [10] concerns the target Non-receptor tyrosine-protein kinase TYK2 (Homo sapiens, UniProt P29597). In words: Selectivity interaction (Kinase panel (Carna Biosciences)) EUB0001542aTs TYK2. The following applies: at 1 µM.
The target in assay [11] is Microtubule-associated serine/threonine-protein kinase 1 (Homo sapiens) (UniProt Q9Y2H9). Put plainly: Selectivity interaction (KinomeScan (DiscoverX)) EUB0000655a MAST1. The settings on record: at 10 µM.
Microtubule-associated serine/threonine-protein kinase 1 (Homo sapiens), sequence (Q9Y2H9 whole entry, looked up): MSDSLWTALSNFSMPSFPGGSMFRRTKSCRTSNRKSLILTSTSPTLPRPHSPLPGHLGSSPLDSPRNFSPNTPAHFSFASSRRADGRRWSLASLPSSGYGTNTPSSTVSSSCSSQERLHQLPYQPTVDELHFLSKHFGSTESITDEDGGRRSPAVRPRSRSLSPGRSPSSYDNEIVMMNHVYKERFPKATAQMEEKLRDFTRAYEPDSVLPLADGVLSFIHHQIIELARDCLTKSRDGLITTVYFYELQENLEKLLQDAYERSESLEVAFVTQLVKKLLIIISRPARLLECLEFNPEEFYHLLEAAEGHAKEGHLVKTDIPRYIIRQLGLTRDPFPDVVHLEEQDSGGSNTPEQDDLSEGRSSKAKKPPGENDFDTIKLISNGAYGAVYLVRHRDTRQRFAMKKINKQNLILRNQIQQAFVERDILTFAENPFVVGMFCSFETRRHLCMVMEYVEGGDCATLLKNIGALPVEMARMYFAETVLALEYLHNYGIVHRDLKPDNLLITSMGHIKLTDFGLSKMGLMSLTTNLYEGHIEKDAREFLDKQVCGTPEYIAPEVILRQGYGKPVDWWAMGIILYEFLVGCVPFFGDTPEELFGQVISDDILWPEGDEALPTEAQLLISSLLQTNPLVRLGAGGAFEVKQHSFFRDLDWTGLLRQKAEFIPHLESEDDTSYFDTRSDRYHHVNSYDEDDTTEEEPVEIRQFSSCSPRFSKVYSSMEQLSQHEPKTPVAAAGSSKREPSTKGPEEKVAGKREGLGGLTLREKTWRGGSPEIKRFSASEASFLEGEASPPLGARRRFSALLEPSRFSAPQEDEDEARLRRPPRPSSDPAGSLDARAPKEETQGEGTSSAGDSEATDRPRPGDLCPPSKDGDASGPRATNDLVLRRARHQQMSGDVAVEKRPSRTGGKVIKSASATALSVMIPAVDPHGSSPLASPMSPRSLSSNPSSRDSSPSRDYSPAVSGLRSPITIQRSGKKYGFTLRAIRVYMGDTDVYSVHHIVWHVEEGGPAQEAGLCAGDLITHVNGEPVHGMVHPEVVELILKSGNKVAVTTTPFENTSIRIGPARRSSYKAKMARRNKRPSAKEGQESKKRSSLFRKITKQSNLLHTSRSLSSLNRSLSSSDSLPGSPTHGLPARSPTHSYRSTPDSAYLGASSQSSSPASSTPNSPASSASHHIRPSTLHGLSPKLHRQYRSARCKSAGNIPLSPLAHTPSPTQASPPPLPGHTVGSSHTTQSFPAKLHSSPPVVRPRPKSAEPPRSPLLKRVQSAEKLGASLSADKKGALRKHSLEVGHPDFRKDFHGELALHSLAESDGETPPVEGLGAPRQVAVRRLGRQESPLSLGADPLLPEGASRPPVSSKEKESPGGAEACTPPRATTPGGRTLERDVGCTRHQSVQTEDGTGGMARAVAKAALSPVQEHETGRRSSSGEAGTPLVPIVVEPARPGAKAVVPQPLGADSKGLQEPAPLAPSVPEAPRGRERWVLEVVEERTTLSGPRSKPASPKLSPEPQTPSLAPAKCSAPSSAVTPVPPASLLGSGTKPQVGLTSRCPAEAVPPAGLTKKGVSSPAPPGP
Assay [12] concerns the target Mitogen-activated protein kinase 8 (Homo sapiens, UniProt P45983). Put plainly: Selectivity interaction (KinomeScan (DiscoverX)) EUB0000655a MAPK8. The settings on record: at 10 µM.
For assay [13], the target named is Ribosomal protein S6 kinase alpha-2 (Homo sapiens) (UniProt Q15349). Put plainly: Selectivity interaction (KinomeScan (DiscoverX)) EUB0000092b RPS6KA2. The settings on record: at 10 µM.

Molecules are shown by their SMILES. Where only a bound is given, the exact number is not on record here.

AP2-associated protein kinase 1, sequence (Q2M2I8 whole entry, looked up): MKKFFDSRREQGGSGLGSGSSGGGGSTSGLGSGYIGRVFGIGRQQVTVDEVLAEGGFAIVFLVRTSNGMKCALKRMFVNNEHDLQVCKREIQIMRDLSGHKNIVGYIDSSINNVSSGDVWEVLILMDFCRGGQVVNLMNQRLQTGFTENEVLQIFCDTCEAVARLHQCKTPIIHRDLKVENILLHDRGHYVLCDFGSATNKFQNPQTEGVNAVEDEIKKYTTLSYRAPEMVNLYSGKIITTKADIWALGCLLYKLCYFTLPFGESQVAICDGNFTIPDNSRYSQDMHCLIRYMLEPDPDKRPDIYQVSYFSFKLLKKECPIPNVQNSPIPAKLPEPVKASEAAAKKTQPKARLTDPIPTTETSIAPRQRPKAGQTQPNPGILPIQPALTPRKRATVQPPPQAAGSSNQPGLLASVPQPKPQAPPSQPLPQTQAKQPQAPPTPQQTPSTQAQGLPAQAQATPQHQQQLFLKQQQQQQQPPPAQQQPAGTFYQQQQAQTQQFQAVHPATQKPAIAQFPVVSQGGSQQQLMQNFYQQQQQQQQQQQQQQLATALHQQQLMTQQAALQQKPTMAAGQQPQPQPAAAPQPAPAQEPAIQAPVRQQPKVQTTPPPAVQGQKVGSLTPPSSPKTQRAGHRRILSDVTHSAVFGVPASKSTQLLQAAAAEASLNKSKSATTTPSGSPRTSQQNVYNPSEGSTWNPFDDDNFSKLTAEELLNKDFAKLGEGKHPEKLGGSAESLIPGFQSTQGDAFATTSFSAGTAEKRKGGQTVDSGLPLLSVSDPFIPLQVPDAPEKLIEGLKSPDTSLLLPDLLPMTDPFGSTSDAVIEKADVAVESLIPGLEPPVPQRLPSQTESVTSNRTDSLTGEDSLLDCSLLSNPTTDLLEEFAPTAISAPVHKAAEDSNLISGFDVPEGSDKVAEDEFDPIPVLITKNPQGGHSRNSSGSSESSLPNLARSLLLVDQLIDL
Casein kinase I isoform alpha, sequence (P48729 whole entry, canonical isoform): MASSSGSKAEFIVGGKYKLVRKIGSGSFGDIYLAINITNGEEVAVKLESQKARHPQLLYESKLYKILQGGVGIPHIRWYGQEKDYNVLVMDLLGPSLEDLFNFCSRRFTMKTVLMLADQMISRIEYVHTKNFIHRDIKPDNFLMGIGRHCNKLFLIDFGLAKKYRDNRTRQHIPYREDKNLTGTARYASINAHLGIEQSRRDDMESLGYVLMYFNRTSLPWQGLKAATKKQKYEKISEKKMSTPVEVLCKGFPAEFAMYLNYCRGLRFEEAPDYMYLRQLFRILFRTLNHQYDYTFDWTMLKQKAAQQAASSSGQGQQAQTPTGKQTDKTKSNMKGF
Mitogen-activated protein kinase 8, sequence (P45983 whole entry): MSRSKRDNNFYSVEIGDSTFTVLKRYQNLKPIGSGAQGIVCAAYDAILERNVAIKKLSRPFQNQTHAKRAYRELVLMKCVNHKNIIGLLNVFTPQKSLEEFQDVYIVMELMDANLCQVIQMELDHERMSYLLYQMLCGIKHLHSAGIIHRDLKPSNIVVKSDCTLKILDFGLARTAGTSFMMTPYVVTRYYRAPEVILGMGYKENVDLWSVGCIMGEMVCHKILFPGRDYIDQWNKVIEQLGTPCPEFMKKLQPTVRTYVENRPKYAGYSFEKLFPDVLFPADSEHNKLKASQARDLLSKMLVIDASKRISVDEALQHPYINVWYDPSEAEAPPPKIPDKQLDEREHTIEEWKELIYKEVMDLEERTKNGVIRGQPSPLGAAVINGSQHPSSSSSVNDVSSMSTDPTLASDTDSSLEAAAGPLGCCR

On to `Cn1cc(-n2cnc3c(NCc4nc5cc(Cl)c(Cl)cc5[nH]4)nc(N4CCOCC4)nc32)cn1`, for which, in [1], the % of inhibition was determined as 4.16%.

As a reminder, the IC50 is the midpoint of a concentration-inhibition curve. Higher therefore signals weaker potency in that assay. In assay [2], `COCCN1CCC(c2cc(CN(C)C(=O)c3cccc(Oc4ccccc4)c3)ccn2)CC1` gave a half-inhibitory concentration (IC50) above 10000 nM.

With `N#Cc1cccc(-c2c[nH]c3ncnc(N4CCOCC4)c23)c1`, in [3], the % of inhibition worked out at 8%.

On to `CNC(=O)Nc1ccc(-c2nc(N3CC4CCC(C3)O4)c3cnn(C4CCC5(CC4)OCCO5)c3n2)cc1`, for which, in assay [4], the % of control turned out to be 100%. Also, the % of inhibition in assay [5] was -3%.

Consider `CC[C@@H]1[C@H](F)C(=O)N[C@@H]1COc1nccc2cc(C(N)=O)c(OC)cc12` [ZIMLOVISERTIB], for which the values for the % of inhibition in [6] and in [7] were -70.7% and 1.08%, respectively.

Consider `C=CC(=O)Nc1cc(-n2c(=O)ccc3cnc4ccc(-c5ccc(NS(C)(=O)=O)cc5)cc4c32)ccc1C`, for which the results for the % of control in assay [8] (at 1 µM) and in assay [8] (at 10 µM) were 100% and 62%, respectively.

`CN1Cc2nccc(-c3cn(C)nc3-c3ccc(F)cc3)c2C1=O` yielded an IC50 in [9] of 630 nM.

As for `Cn1cc(Nc2nccc(N3CC4CCC(C3)N4C(=O)[C@@H]3CC3(F)F)n2)cn1`, the % of inhibition in assay [10] came out at 98%.

As for `CN(C)CCOc1ccc(-c2nc(-c3ccncc3)c(-c3ccc4c(c3)CC/C4=N\O)[nH]2)cc1`, the values for the % of control in [11] and in [12] were 100% and 92%, respectively.

Molecule `CCC(=O)N1CCN(c2ccc(-n3c(=O)ccc4cnc5ccc(-c6cnc7ccccc7c6)cc5c43)cc2C(F)(F)F)CC1` registered a % of control in [13] of 85%.
